Where a name gives a salt, the structure may show the parent alone.
molecular target: mGluR5 (Homo sapiens, UniProt P41594); assay: inhibition of the glutamate induced elevation of intracellular Ca2+ concentration; details: inhibition of glutamate induced elevation of intracellular Ca2+ concentration at 10 μM
Sequence (P41594 21-1180 isoform P41594-2 limits assumed): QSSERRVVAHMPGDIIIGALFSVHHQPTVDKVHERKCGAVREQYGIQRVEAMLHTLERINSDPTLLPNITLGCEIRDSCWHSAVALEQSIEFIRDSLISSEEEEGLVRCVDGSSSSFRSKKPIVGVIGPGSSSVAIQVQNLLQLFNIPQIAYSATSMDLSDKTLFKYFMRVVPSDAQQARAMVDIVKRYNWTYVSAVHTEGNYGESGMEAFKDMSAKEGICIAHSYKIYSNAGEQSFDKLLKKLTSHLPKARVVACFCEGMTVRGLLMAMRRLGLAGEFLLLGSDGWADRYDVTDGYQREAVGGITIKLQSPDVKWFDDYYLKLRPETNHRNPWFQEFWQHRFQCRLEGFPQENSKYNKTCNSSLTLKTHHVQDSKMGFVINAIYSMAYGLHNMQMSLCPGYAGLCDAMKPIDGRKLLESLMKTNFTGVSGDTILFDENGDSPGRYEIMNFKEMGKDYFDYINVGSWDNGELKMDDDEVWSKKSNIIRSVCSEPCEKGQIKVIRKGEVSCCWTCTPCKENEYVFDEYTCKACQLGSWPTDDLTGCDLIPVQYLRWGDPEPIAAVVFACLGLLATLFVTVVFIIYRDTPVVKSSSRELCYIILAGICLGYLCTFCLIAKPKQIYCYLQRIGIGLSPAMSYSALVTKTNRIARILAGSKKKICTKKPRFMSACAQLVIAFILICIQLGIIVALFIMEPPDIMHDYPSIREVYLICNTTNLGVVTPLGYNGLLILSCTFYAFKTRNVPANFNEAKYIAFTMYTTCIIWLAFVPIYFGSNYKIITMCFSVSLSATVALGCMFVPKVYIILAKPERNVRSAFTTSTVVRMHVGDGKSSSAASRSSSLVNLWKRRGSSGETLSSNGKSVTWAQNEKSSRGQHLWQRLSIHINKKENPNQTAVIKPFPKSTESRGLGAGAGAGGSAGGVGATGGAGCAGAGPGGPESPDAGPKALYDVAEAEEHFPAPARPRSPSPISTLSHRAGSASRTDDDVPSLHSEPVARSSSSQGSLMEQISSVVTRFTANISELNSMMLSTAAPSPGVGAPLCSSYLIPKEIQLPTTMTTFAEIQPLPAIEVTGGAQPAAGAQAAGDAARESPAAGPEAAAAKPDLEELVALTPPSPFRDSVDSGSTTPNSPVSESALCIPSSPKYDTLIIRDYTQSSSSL
Description: This can be determined in vitro for example at recombinant human metabotropic glutamate receptors, especially PLC-coupled subtypes thereof such as mGluR5, using different procedures like, for example, measurement of the inhibition of the agonist induced elevation of intracellular Ca^2+ concentration in accordance with L. P. Daggett et al., Neuropharm.

Structure (SMILES) | mGluR5 Activity inh. at 10 μM [%]
COc1ccc(Nc2ccc(C(=O)N3C[C@@H](C)O[C@@H](C)C3)cn2)cc1.Cl [Compound 1.21, (cis-Z 6-Dimethyl-morpholin-4-yl)-[6-(4-methoxy-phenylamino)-pyridin-3-yl]-methanone hydrochloride] | 57%
Cc1ccc(Nc2ccc(C(=O)N3CCC[C@H](C)C3)cn2)cn1 [Compound 4.13a, (S-3-Methyl-piperidin-1-yl)-[6-(6-methyl-pyridin-3-ylamino)-pyridin-3-yl]-methanone] | 97%

same assay, conditions: read-out: mGluR5 Activity inh. at 10 μM [%]

Structure (SMILES) | inhibition at 10 µM
COc1ccc(Nc2ccc(C(=O)N3CCOCC3)cn2)cc1 [Compound 1.18, [6-(4-Methoxy-phenylamino)-pyridin-3-yl]-morpholin-4-yl-methanone hydrochloride] | 32%
C[C@@H]1CN(C(=O)c2ccc(Nc3ccc(Cl)cc3)nc2)C[C@H](C)O1 [Compound 1.19, cis-[6-(4-Chloro-phenylamino)-pyridin-3-yl]-(2,6-dimethyl-morpholin-4-yl)-methanone hydrochloride] | 94%
Cc1ccc(Nc2ccc(C(=O)N3C[C@@H](C)O[C@@H](C)C3)cn2)cc1 [Compound 1.20, (cis-2,6-Dimethyl-morpholin-4-yl)-(6-p-tolylamino-pyridin-3-yl)-methanone hydrochloride] | 95%
O=C(c1ccc(Nc2ccc(Cl)cn2)nc1)N1CCCCC1 [Compound 2.1, [6-(5-Chloro-pyridin-2-ylamino)-pyridin-3-yl]-piperidin-1-yl-methanone] | 60%
O=C(c1ccc(Nc2cccnc2)nc1)N1CCCCCC1 [Compound 2.2, Azepan-1-yl-[6-(pyridin-3-ylamino)-pyridin-3-yl]-methanone] | 46%
O=C(c1ccc(Nc2ccc(F)c(F)c2)nc1)N1CCCCC1 [Compound 2.3, [6-(3,4-Difluoro-phenylamino)-pyridin-3-yl]-piperidin-1-yl-methanone] | 65%
O=C(c1cnc(Nc2ccc(Cl)cc2)c(Cl)c1)N1CCSCC1 [Compound 2.5, [5-Chloro-6-(4-chloro-phenylamino)-pyridin-3-yl]-thiomorpholin-4-yl-methanone] | 97%
COc1ccc(Nc2ncc(C(=O)N3CCCCCC3)cc2Cl)cn1 [Compound 2.7, Azepan-1-yl-[5-chloro-6-(6-methoxy-pyridin-3-ylamino)-pyridin-3-yl]-methanone] | 98%
COc1ccc(Nc2ncc(C(=O)N3CCCCC3)cc2Cl)cn1 [Compound 2.8, [5-Chloro-6-(6-methoxy-pyridin-3-ylamino)-pyridin-3-yl]-piperidin-1-yl-methanone] | 96%
CCOc1ccc(Nc2ncc(C(=O)N3CCCCC3)cc2Cl)cn1 [Compound 2.9, [5-Chloro-6-(6-ethoxy-pyridin-3-ylamino)-pyridin-3-yl]-piperidin-1-yl-methanone] | 100%
Cc1ccc(Nc2ncc(C(=O)N3CCSC3)cc2Cl)cn1 [Compound 2.14, [5-Chloro-6-(6-methyl-pyridin-3-ylamino)-pyridin-3-yl]-thiazolidin-3-yl-methanone] | 97%
Cc1ccc(Nc2ncc(C(=O)N3CCSCC3)cc2Cl)cn1 [Compound 2.15, [5-Chloro-6-(6-methyl-pyridin-3-ylamino)-pyridin-3-yl]-thiomorpholin-4-yl-methanone] | 100%
Cc1ncc(Nc2ncc(C(=O)N3CCCC(C)C3)cc2Cl)cn1 (stereo not shown) [Compound 2.16, [5-Chloro-6-(2-methyl-pyrimidin-5-ylamino)-pyridin-3-yl]-(3-methyl-piperidin-1-yl)-methanone] | 97%
Cc1ncc(Nc2ncc(C(=O)N3CCCCC3)cc2Cl)cn1 [Compound 2.17, [5-Chloro-6-(2-methyl-pyrimidin-5-ylamino)-pyridin-3-yl]-piperidin-1-yl-methanone] | 97%
Cc1ncc(Nc2ncc(C(=O)N3CCCCCC3)cc2Cl)cn1 [Compound 2.18, Azepan-1-yl-[5-chloro-6-(2-methyl-pyrimidin-5-ylamino)-pyridin-3-yl]-methanone] | 100%
CC[C@@H]1CCCCN1C(=O)c1cnc(Nc2ccc(C(F)(F)F)nc2)c(Cl)c1 [Compound 2.23, [5-Chloro-6-(6-trifluoromethyl-pyridin-3-ylamino)-pyridin-3-yl]-((R)-2-ethyl-piperidin-1-yl)-methanone] | 100%
CC[C@@H]1CCCCN1C(=O)c1cnc(Nc2ccc(OC)nc2)c(Cl)c1 [Compound 2.24, [5-Chloro-6-(6-methoxy-pyridin-3-ylamino)-pyridin-3-yl]-((R)-2-ethyl-piperidin-1-yl)-methanone] | 97%
Cc1ccc(Oc2ncc(C(=O)N3CCCCC3)cc2Cl)cn1 [Compound 3.2, [5-Chloro-6-(6-methyl-pyridin-3-yloxy)-pyridin-3-yl]-piperidin-1-yl-methanone] | 97%
Cc1ccc(Oc2ncc(C(=O)N3CCCCCC3)cc2Cl)cn1 [Compound 3.3, Azepan-1-yl-[5-chloro-6-(6-methyl-pyridin-3-yloxy)-pyridin-3-yl]-methanone] | 90%
Cc1ccc(Nc2ccc(C(=O)N3CCCCC3)cn2)cn1 [Compound 4.1, [6-(6-Methyl-pyridin-3-ylamino)-pyridin-3-yl]-piperidin-1-yl-methanone] | 99%
O=C(c1ccc(Nc2ccc(Cl)cc2)nc1)N1CCCCCC1 [Compound 4.2, Azepan-1-yl-[6-(4-chloro-phenylamino)-pyridin-3-yl]-methanone] | 97%
O=C(c1ccc(Nc2ccc(Cl)cc2)nc1)N1CCCC(F)(F)C1 [Compound 4.3, [6-(4-Chloro-phenylamino)-pyridin-3-yl]-(3,3-difluoro-piperidin-1-yl)-methanone] | 92%
CC1CCN(C(=O)c2ccc(Nc3ccc(Cl)cc3)nc2)CC1 [Compound 4.4, [6-(4-Chloro-phenylamino)-pyridin-3-yl]-(4-methyl-piperidin-1-yl)-methanone] | 98%
CC1CC(C)CN(C(=O)c2ccc(Nc3ccc(Cl)cc3)nc2)C1 (stereo not shown) [Compound 4.5, [6-(4-Chloro-phenylamino)-pyridin-3-yl]-(3,5-dimethyl-piperidin-1-yl)-methanone] | 88%
O=C(c1ccc(Nc2ccc(Cl)cc2)nc1)N1CCCC2CCCCC21 (stereo not shown) [Compound 4.8, [6-(4-Chloro-phenylamino)-pyridin-3-yl]-(octahydro-quinolin-1-yl)-meth anone] | 94%
O=C(c1ccc(Nc2ccc(Cl)cc2)nc1)N1CC2CCC(CC2)C1 [Compound 4.9, (3-Aza-bicyclo[3.2.2]non-3-yl)-[6-(4-chloro-phenylamino)-pyridin-3-yl]-methanone] | 37%
O=C(c1ccc(Nc2ccc(Cl)cc2)nc1)N1C2CCC1CC(O)C2 (stereo not shown) [Compound 4.11, [6-(4-Chloro-phenylamino)-pyridin-3-yl]-(3-hydroxy-8-aza-bicyclo[3.2.1]oct-8-yl)-methanone] | 51%
Cc1ccc(Nc2ccc(C(=O)N3CCC[C@@H](C)C3)cn2)cn1 [Compound 4.13b, (R-3-Methyl-piperidin-1-yl)-[6-(6-methyl-pyridin-3-ylamino)-pyridin-3-yl]-methanone] | 96%
Cc1ccc(Nc2ccc(C(=O)N3CCCCCC3)cn2)cn1 [Compound 4.15, Azepan-1-yl-[6-(6-methyl-pyridin-3-ylamino)-pyridin-3-yl]-methanone] | 98%

From US20090005363A1, “Organic Compounds” (priority 2005, published 2009)
